From ChEMBL document CHEMBL1201862, “PubChem BioAssay data set” (2004)
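Step 1: Grow cells in 96-well plates. Step 2: Expose to compound for 48 hours at 5 concentrations. Step 3: Interpolate endpoints linearly; if unreached, use highest concentration. Here, GI50 denotes the concentration required for 50% inhibition of growth.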 Calls of active or inactive are those of the source. Cut-off read from the data, not from the text of the source: active = GI50 up to about 1.1 µM and inactive = higher.

Assays:
Assay in all cases: NCI tumour cell line growth inhibition, 48 h
[1] = tested on: 786-0
[2] = tested on: A498
[3] = tested on: A549
[4] = tested on: ACHN
[5] = tested on: BT-549
[6] = tested on: CAKI-1
[7] = tested on: CCRF-CEM
[8] = tested on: COLO 205
[9] = tested on: EKVX
[10] = tested on: HCC 2998
[11] = tested on: HCT-116
[12] = tested on: HCT-15
[13] = tested on: HOP-62
[14] = tested on: HOP-92
[15] = tested on: HT-29
[16] = tested on: Hs-578T
[17] = tested on: IGROV-1
[18] = tested on: K562
[19] = tested on: KM12
[20] = tested on: LOX IMVI
[21] = tested on: M14
[22] = tested on: MCF7
[23] = tested on: MDA-MB-231
[24] = tested on: MDA-MB-435
[25] = tested on: MDA-N
[26] = tested on: MOLT-4
[27] = tested on: Malme-3M
[28] = tested on: NCI-H226
[29] = tested on: NCI-H460
[30] = tested on: NCI-H522
[31] = tested on: NCI/ADR-RES
[32] = tested on: OVCAR-4
[33] = tested on: OVCAR-5
[34] = tested on: OVCAR-8
[35] = tested on: PC-3
[36] = tested on: RPMI-8226
[37] = tested on: RXF 393
[38] = tested on: SF-268
[39] = tested on: SF-295
[40] = tested on: SF-539
[41] = tested on: SK-MEL-28
[42] = tested on: SK-MEL-2
[43] = tested on: SK-MEL-5
[44] = tested on: SK-OV-3
[45] = tested on: SN12C
[46] = tested on: SNB-19
[47] = tested on: SNB-75
[48] = tested on: SW-620
[49] = tested on: TK-10
[50] = tested on: U-251
[51] = tested on: UACC-257
[52] = tested on: UACC-62
[53] = tested on: DU-145
[54] = tested on: HL-60
[55] = tested on: NCI-H23
[56] = tested on: OVCAR-3
[57] = tested on: SR
[58] = tested on: UO-31

CN(C)c1ccc(-c2c(C#N)c(-c3ccccc3)n(NS(=O)(=O)c3ccccc3)c(=O)c2C#N)cc1
GI50 [1]: 69.5 µM (inactive)
GI50 [2]: 57 µM (inactive)
GI50 [3]: 42.9 µM (inactive)
GI50 [4]: 45.8 µM (inactive)
GI50 [5]: 56.9 µM (inactive)
GI50 [6]: 45.7 µM (inactive)
GI50 [7]: 26.5 µM (inactive)
GI50 [8]: > 100 µM (inactive)
GI50 [9]: 67.5 µM (inactive)
GI50 [10]: 30.1 µM (inactive)
GI50 [11]: 34.1 µM (inactive)
GI50 [12]: 77.3 µM
GI50 [13]: 38.8 µM (inactive)
GI50 [14]: 28.9 µM (inactive)
GI50 [15]: 76.7 µM (inactive)
GI50 [16]: 23.1 µM (inactive)
GI50 [17]: 40.8 µM (inactive)
GI50 [18]: 49.1 µM (inactive)
GI50 [19]: 65.6 µM (inactive)
GI50 [20]: 37.4 µM (inactive)
GI50 [21]: 47.4 µM (inactive)
GI50 [22]: 40.7 µM (inactive)
GI50 [23]: 88.1 µM (inactive)
GI50 [24]: 71.4 µM (inactive)
GI50 [25]: 68.1 µM (inactive)
GI50 [26]: 20.7 µM (inactive)
GI50 [27]: 40.1 µM (inactive)
GI50 [28]: > 100 µM (inactive)
GI50 [29]: 54.3 µM (inactive)
GI50 [30]: 58.3 µM (inactive)
GI50 [31]: 57.3 µM (inactive)
GI50 [32]: > 100 µM (inactive)
GI50 [33]: > 100 µM (inactive)
GI50 [34]: 31.4 µM (inactive)
GI50 [35]: 26.9 µM (inactive)
GI50 [36]: 21.3 µM (inactive)
GI50 [37]: 44 µM (inactive)
GI50 [38]: 56 µM (inactive)
GI50 [39]: 41.7 µM (inactive)
GI50 [40]: 33.3 µM (inactive)
GI50 [41]: 70.8 µM (inactive)
GI50 [42]: 41.6 µM (inactive)
GI50 [43]: 20.4 µM (inactive)
GI50 [44]: 67.3 µM (inactive)
GI50 [45]: 68.9 µM (inactive)
GI50 [46]: 24.8 µM (inactive)
GI50 [47]: 48.5 µM (inactive)
GI50 [48]: 43.3 µM (inactive)
GI50 [49]: 79.6 µM (inactive)
GI50 [50]: 50.7 µM (inactive)
GI50 [51]: > 100 µM (inactive)
GI50 [52]: 43.3 µM (inactive)

O=Cc1cn(CCCCCn2cc(C=O)c3ccccc32)c2ccccc12
GI50 [1]: 71.4 µM (inactive)
GI50 [2]: 5.71 µM (inactive)
GI50 [3]: > 100 µM (inactive)
GI50 [4]: > 100 µM (inactive)
GI50 [5]: > 100 µM (inactive)
GI50 [6]: > 100 µM (inactive)
GI50 [7]: > 100 µM (inactive)
GI50 [8]: > 100 µM (inactive)
GI50 [53]: > 100 µM (inactive)
GI50 [9]: > 100 µM (inactive)
GI50 [11]: > 100 µM (inactive)
GI50 [12]: > 100 µM
GI50 [54]: > 100 µM (inactive)
GI50 [14]: > 100 µM (inactive)
GI50 [15]: > 100 µM (inactive)
GI50 [16]: 25 µM (inactive)
GI50 [17]: > 100 µM (inactive)
GI50 [18]: > 10 µM (inactive)
GI50 [20]: 41.5 µM (inactive)
GI50 [21]: > 100 µM (inactive)
GI50 [23]: 54.6 µM (inactive)
GI50 [24]: > 100 µM (inactive)
GI50 [25]: > 100 µM (inactive)
GI50 [26]: > 100 µM (inactive)
GI50 [27]: > 100 µM (inactive)
GI50 [28]: 0.262 µM (active)
GI50 [55]: > 100 µM (inactive)
GI50 [29]: 0.124 µM (active)
GI50 [30]: 8.18 µM (inactive)
GI50 [31]: > 100 µM (inactive)
GI50 [56]: > 100 µM (inactive)
GI50 [33]: 1.68 µM (inactive)
GI50 [34]: > 100 µM (inactive)
GI50 [35]: > 100 µM (inactive)
GI50 [36]: > 100 µM (inactive)
GI50 [37]: 6.55 µM (inactive)
GI50 [38]: 16.7 µM (inactive)
GI50 [39]: 10.4 µM (inactive)
GI50 [40]: > 100 µM (inactive)
GI50 [42]: > 100 µM (inactive)
GI50 [43]: > 100 µM (inactive)
GI50 [44]: > 100 µM (inactive)
GI50 [45]: > 100 µM (inactive)
GI50 [46]: > 100 µM (inactive)
GI50 [57]: > 100 µM (inactive)
GI50 [48]: > 100 µM (inactive)
GI50 [49]: > 100 µM (inactive)
GI50 [50]: 67.9 µM (inactive)
GI50 [51]: > 100 µM (inactive)
GI50 [52]: > 100 µM (inactive)
GI50 [58]: > 100 µM (inactive)

CCOC(=O)CC1c2ccc(O)cc2OC(=O)C1c1ccc(N)cc1 (configuration not stated)
GI50 [1]: > 100 µM (inactive)
GI50 [2]: > 100 µM (inactive)
GI50 [3]: > 100 µM (inactive)
GI50 [4]: > 100 µM (inactive)
GI50 [5]: > 100 µM (inactive)
GI50 [6]: > 100 µM (inactive)
GI50 [7]: > 100 µM (inactive)
GI50 [8]: > 100 µM (inactive)
GI50 [53]: > 100 µM (inactive)
GI50 [9]: > 100 µM (inactive)
GI50 [10]: > 100 µM (inactive)
GI50 [11]: > 100 µM (inactive)
GI50 [12]: > 100 µM
GI50 [13]: 4.34 µM (inactive)
GI50 [15]: > 100 µM (inactive)
GI50 [16]: 66.1 µM (inactive)
GI50 [17]: > 100 µM (inactive)
GI50 [18]: > 100 µM (inactive)
GI50 [19]: > 100 µM (inactive)
GI50 [20]: > 100 µM (inactive)
GI50 [21]: > 100 µM (inactive)
GI50 [22]: > 100 µM (inactive)
GI50 [23]: > 100 µM (inactive)
GI50 [24]: > 100 µM (inactive)
GI50 [25]: > 100 µM (inactive)
GI50 [26]: > 100 µM (inactive)
GI50 [27]: > 100 µM (inactive)
GI50 [28]: > 100 µM (inactive)
GI50 [55]: > 100 µM (inactive)
GI50 [29]: > 100 µM (inactive)
GI50 [30]: 86.7 µM (inactive)
GI50 [31]: > 100 µM (inactive)
GI50 [56]: > 100 µM (inactive)
GI50 [34]: 95.9 µM (inactive)
GI50 [35]: > 100 µM (inactive)
GI50 [36]: > 100 µM (inactive)
GI50 [37]: > 100 µM (inactive)
GI50 [38]: 98.4 µM (inactive)
GI50 [39]: > 100 µM (inactive)
GI50 [40]: 56.6 µM (inactive)
GI50 [41]: > 100 µM (inactive)
GI50 [42]: > 100 µM (inactive)
GI50 [43]: > 100 µM (inactive)
GI50 [44]: > 100 µM (inactive)
GI50 [45]: > 100 µM (inactive)
GI50 [46]: > 100 µM (inactive)
GI50 [47]: 84.9 µM (inactive)
GI50 [57]: > 100 µM (inactive)
GI50 [48]: > 100 µM (inactive)
GI50 [49]: > 100 µM (inactive)
GI50 [50]: > 100 µM (inactive)
GI50 [51]: > 100 µM (inactive)
GI50 [52]: > 100 µM (inactive)
GI50 [58]: > 100 µM (inactive)
